Our source for the EC50 and Emax values is patent publication US8735396B2, “Benzofuranyl derivatives” (Pfizer Inc., priority 2009, dated 2014).

In the experiment the target is T1, Full-length glucokinase (beta cell isoform) (Homo sapiens, UniProt P35557).
T1 construct: Full-length glucokinase (beta cell isoform) was His-tagged at N-terminus; His tag (N); made in house; host or cells: E. coli BL21(DE3) carrying the pBCGK vector
T1 sequence (P35557 1-465): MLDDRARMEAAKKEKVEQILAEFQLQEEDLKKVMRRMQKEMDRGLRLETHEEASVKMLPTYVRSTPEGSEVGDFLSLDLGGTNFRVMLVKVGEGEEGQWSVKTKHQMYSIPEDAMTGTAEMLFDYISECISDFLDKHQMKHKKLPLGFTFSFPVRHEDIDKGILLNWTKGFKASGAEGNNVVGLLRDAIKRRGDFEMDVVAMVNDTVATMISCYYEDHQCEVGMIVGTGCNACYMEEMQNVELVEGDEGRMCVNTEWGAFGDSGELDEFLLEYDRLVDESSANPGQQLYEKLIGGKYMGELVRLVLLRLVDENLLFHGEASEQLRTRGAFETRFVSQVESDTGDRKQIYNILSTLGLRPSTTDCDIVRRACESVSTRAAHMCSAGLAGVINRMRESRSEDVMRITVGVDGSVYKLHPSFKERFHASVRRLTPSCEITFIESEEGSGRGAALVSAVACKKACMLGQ
The experiment is described as follows: In vitro glucokinase activation assay (PK/LDH coupled, NADH depletion at 340 nm). The format is biochemical. Particulars: 5 mM glucose, 2.5 mM ATP; for EC50: pH 7.1, room temperature; for Emax: pH 7.1, (Va/Vo−1)×100 fitted, read-out: Maximum Activation (%). The protocol:
Full-length glucokinase (beta cell isoform) was His-tagged at N-terminus and purified by a Ni column followed by size exclusion chromatography. A 320 mL column was packed in house using Superdex75 (Amersham Pharmacia, Carlsbad, Calif.) preparation grade resin. Glucose was obtained from Calbiochem (San Diego, Calif.) and other reagents were purchased from Sigma-Aldrich (St. Louis, Mo.).
All assays were performed in a Corning 384-well plate using Spectramax PLUS spectrophotometer (Molecular Devices, Sunnyvale, Calif.) at room temperature. The final assay volume was 40 μL. The buffer conditions used in this assay were as follows: 50 mM HEPES, 5 mM glucose, 2.5 mM ATP, 3.5 mM MgCl2, 0.7 mM NADH, 2 mM dithiothreitol, 1 unit/mL pyruvate kinase/lactate dehydrogenase (PK/LDH), 0.2 mM phosphoenolpyruvate, and 25 mM KCl. The buffer pH was 7.1. The test compound in dimethylsulfoxide solution was added to the buffer and mixed by a plate shaker for 7.5 minutes.
Glucokinase was added to the buffer mixture to initiate the reaction in the presence and absence of compound. The reaction was monitored by absorbance at 340 nm due to the depletion of NADH. The initial reaction velocity was measured by the slope of a linear time course of 0-300 seconds. The percentage of maximum activation was calculated by the following equation: % Maximum Activation=(Va/Vo−1)×100; wherein each of Va and Vo is defined as the initial reaction velocity in the presence and absence of the tested compound, respectively.
The glucokinase activities were measured as a function of compound concentrations.

Regarding `COc1cnc(NC(=O)c2cc(Oc3cnc(C(=O)N(C)C)nc3)c3cc(C)oc3c2)cn1` [Example 3, 5-(6-((5-methoxypyrazin-2-yl)carbamoyl)-2-methylbenzofuran-4-yloxy)-N,N-dimethylpyrimidine-2-carboxamide], a half-maximal effect (EC50) was put at 462 nM and the Emax came out at 69.5%.
On to `Cc1cc2c(Oc3cnc(C(=O)N(C)C)nc3)cc(C(=O)Nc3ccn(C)n3)cc2o1` [Example 4, N,N-dimethyl-5-(2-methyl-6-((1-methyl-1H-pyrazol-3-yl)-carbamoyl)benzofuran-4-yloxy)pyrimidine-2-carboxamide], for which the EC50 came out at 629 nM and the Emax was found to be 63.9%.
As for `CCN(C)C(=O)c1ncc(Oc2cc(C(=O)Nc3cnc(C)cn3)cc3oc(C)cc23)cn1` [Example 5, N-ethyl-N-methyl-5-(2-methyl-6-((5-methylpyrazin-2-yl)carbamoyl)benzofuran-4-yloxy)pyrimidine-2-carboxamide], the EC50 stood at 546 nM and the Emax came to 57.6%.
As to `CCN(C)C(=O)c1ncc(Oc2cc(C(=O)Nc3ccn(C)n3)cc3oc(C)cc23)cn1` [Example 6, N-ethyl-N-methyl-5-(2-methyl-6-((1-methyl-1H-pyrazol-3-yl)carbamoyl)benzofuran-4-yloxy)pyrimidine-2-carboxamide], the concentration giving a half-maximal response (EC50) was found to be 382 nM and the Emax turned out to be 54.1%.
On to `CCN(C)C(=O)c1cnc(Oc2cc(C(=O)Nc3cnc(C)cn3)cc3oc(C)cc23)cn1` [Example 7, N-ethyl-N-methyl-5-(2-methyl-6-((5-methylpyrazin-2-yl)carbamoyl)-benzofuran-4-yloxy)pyrazine-2-carboxamide], for which the EC50 is 474 nM and the Emax turned out to be 63.4%.
